Here are results for 3 compounds from US20250353891A1 (MEDIMMUNE LIMITED, priority 2022, published 2025).

Starred links: 1 amine or outer side, 2 acyl side, 3 side chain; linkers in the order of their positions; H or OH if unused. Non-standard residues stand in square brackets, D forms with d. Residues, ends and D or L forms follow the SMILES beside them. Groups on a side chain read outwards from the residue. *: point of attachment. C20 diacid = O=C(O)CCCCCCCCCCCCCCCCCCC(=O)*; C18 diacid = O=C(O)CCCCCCCCCCCCCCCCC(=O)*; γGlu = O=C(O)[C@H](CCC(=O)[*:2])N[*:1]; αMeF = C[C@](N)(Cc1ccccc1)C(=O)O; AEEA = NCCOCCOCC(=O)O; Aib = CC(C)(N)C(=O)O

A short description of data set [1]: Mouse acute food intake study. Format: in vivo. Conditions: male C57Bl/6 mice, s.c., dose 10 nmol/kg, cumulative food intake at 24 hr vs vehicle. A digest of the protocol:
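Peptide or vehicle went subcutaneously (5 mL/kg) to 6-8 h-fasted male C57Bl/6 mice shortly before the dark phase, with groups balanced on body weight and 24-hour intake. Cumulative food consumption was derived from 48 h of automated BioDaq monitoring with free food and water access.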

A further data set relates to wildtype (WT) mice. The data set is described as follows: Glucose change in wildtype mice. Format: in vivo, mouse. Particulars: s.c., 60 min vs 0 min, no somatostatin pretreatment. In short, it runs like this: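 Wildtype mice aged 8-14 weeks, fasted 2 h, sometimes pre-treated with octreotide 10 mg/kg 30 min before peptide injection. Blood glucose by glucometer at -30, 0, 30, 60, 120, 180, 240 and 360 min; n=4-8/group, mice reused up to 3 times with ≥1 week wash-out.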

For data set [2], the target named is human GLP-1 receptor (hGLP-1R) (Homo sapiens, UniProt P43220). Briefly: cAMP production (HTRF) in CHO cells expressing hGLP-1R. Type of data set: cell-based. More on the design: expressed in transfected cells. Conditions: for EC50: Table 6, peptides modified at position 17, cAMP in CHO hGLP-1R cells, geometric mean, read-out: hGLP-1R EC50; for % Relative Potency Ratio: Table 6, % GLP-1R activity relative to GLP-1 / % GlucR activity relative to glucagon. A digest of the protocol:
(§1)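 Read-out: HTRF cAMP (anti-cAMP cryptate donor, cAMP-d2 acceptor in conjugate/lysis buffer), converted to % Delta F and fitted by 4-parameter logistic for EC50. Cell densities were 1×10^5 cells/mL (hGLP-1R) or 2×10^5 cells/mL (hGCGR). Stimulation lasted 30 min at room temperature.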

For data set [3], the target named is human glucagon receptor (hGCGR) (Homo sapiens, UniProt P47871). Briefly: cAMP production (HTRF) in CHO cells expressing hGCGR. Format: cell-based. Also on record: expressed in transfected cells. Particulars: Table 6, peptides modified at position 17; cAMP in CHO hGCGR cells; geometric mean; read-out: hGluc-R EC50. In short, it runs like this: as §1
(In general: Cyclic AMP is a second messenger, typically raised through Gs and lowered through Gi signalling.)

The subject of data set [4] is GLP-1R knockout (KO) mice. Briefly: Glucose change in GLP-1R knockout mice. Type of data set: in vivo, mouse. Particulars: GLP-1R KO mice, s.c., 60 min vs 0 min, no somatostatin pretreatment. In short, it runs like this:
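GLP-1R knockout mice (n=4-8/group, sorted by body weight) were fasted 2 h, and in some studies pretreated with octreotide 10 mg/kg 30 min before peptide injection. Mice were reused up to 3 times with at least 1-week wash-out.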

The next data set can be described thus: in vivo. Particulars: 10 nmol/kg; for half-life: iv. An excerpt:
Selected test peptides (n=8) were profiled for pharmacokinetic (PK) properties in the mouse after single intravenous (i.v.) or subcutaneous (s.c.) dose. A subset (n=4) meeting the acceptance criteria was subsequently profiled in the dog (single i.v. dose) and non-human primate (single i.v. and s.c. dose). […] Low-binding plasticware containers were used during preparation and sample handling to avoid non-specific binding.
After dosing, PK samples were collected from the dorsal metatarsal vein. Blood of each sample was transferred into plastic micro centrifuge tubes containing EDTA-K2, inverted several times for proper mixing of contents and then placed on wet ice. The blood samples were centrifuged at 4° C. to obtain plasma and stored at −75° C. prior to analysis.
Samples analysis: Samples were analyzed by LC-MS/MS. Calibration standards were injected at the beginning and end of each batch and the determined concentration for each prepared standard was used to construct a calibration curve. Plasma and dose aliquot sample concentrations were determined from the plasma calibration curve.
Data analysis: Plasma concentration data was analyzed by non-compartmental analysis (NCA) using Phoenix Winnonlin v. 8.3.3.33. Linear trapezoidal rule was used for increasing values and log trapezoidal rule was used for decreasing values, applying uniform weighting for lambda_z calculations. Subcutaneous bioavailability was calculated as the ratio AUC(s.c.)0-inf/AUC(i.v.)0-inf. Reported values (Table 18) represent the mean of the individual estimates.

The target of a further data set is T1, recombinant Neprilysin (Homo sapiens, UniProt P08473).
T1 construct: purchased R&D Systems 1182-ZNC-010
Briefly: Proteolytic resistance to neprilysin. Format: in vitro ADME. Particulars: pH 8.3. A digest of the protocol: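 Peptide stock (~250 μM) mixed 1:1 with neprilysin stock (100 μg/mL) in Tris/NaCl/NaHCO3 buffer, pH 8.3, at 37° C. Aliquots at 0, 30 min, 1, 2, 4, 24 h quenched in TFA/acetonitrile. Intact peptide estimated by RP-HPLC peak area at 210 nm.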

The nature of data set [5]: Proteolytic resistance to FasSSIF/Pancreatin. Conditions: simulated intestinal fluid. Format: in vitro ADME. In short, it runs like this: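 Peptide (1.0 mg) in pre-warmed FasSSIF, proteolysis started with fresh FasSSIF/USP Pancreatin and held at 37 °C. Aliquots at 0, 5, 10, 15, 30 min quenched in 10% TFA; remaining intact peptide estimated by RP-HPLC peak area, UV 210 nm.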

Data set [6] is described as follows: Proteolytic resistance to FasSSGF containing porcine pancreatic pepsin. Particulars: pig, simulated gastric fluid. Format: in vitro ADME. A digest of the protocol: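 Peptide (250 μM stock in FasSSGF) mixed 1:1 with porcine pepsin stock (0.5 mg/mL in FasSSGF) and held at 37° C; samples at 0, 5, 10, 15 and 30 min quenched in ammonium bicarbonate, pH 8. Intact peptide remaining estimated by RP-HPLC peak area, UV 210 nm.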

Chain of human GLP-1 receptor (hGLP-1R) (P43220 24-463): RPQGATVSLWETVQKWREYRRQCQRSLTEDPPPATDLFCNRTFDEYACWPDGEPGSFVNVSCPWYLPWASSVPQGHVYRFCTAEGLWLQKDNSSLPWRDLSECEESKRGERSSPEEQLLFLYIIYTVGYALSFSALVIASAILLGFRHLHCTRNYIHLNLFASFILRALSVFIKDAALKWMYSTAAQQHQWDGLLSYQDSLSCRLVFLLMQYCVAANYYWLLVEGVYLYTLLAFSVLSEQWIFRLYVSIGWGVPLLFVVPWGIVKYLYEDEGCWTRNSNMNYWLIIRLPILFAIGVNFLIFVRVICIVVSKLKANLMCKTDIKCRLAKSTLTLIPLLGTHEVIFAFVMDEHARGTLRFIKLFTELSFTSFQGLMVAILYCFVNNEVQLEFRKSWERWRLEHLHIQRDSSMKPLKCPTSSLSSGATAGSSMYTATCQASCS
T1 sequence (P08473 52-750 limits assumed): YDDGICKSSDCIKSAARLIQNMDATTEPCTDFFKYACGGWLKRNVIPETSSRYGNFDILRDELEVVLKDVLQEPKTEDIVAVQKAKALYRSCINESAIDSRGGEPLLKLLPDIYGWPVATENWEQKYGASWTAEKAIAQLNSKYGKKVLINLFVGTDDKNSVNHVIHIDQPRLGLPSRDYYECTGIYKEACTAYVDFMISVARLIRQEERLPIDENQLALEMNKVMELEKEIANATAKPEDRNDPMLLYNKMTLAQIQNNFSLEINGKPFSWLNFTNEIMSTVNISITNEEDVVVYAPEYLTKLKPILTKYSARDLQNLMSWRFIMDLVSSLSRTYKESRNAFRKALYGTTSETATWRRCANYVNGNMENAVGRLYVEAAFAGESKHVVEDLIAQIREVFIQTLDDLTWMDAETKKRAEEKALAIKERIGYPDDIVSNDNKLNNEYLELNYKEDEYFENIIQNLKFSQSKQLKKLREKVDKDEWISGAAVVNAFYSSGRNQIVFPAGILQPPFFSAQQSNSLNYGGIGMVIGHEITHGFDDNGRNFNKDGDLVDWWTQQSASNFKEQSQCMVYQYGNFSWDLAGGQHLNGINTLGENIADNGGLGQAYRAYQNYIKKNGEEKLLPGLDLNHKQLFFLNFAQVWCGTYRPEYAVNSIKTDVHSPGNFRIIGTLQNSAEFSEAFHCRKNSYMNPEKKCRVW
Chain of human glucagon receptor (hGCGR) (P47871 26-477): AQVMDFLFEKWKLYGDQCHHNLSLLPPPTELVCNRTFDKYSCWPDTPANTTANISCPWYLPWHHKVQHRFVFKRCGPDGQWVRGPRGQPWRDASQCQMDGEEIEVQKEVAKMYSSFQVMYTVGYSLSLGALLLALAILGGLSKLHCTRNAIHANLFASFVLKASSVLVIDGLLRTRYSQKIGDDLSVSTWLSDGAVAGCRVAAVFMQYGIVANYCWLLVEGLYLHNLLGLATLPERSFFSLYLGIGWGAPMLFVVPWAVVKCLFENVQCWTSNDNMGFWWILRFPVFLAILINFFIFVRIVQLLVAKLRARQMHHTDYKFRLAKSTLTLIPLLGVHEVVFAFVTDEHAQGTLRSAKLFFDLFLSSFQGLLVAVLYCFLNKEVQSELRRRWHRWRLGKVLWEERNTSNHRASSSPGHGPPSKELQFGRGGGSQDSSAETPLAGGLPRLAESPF

The term EC50 denotes the concentration at which the effect is half-maximal. For orientation: half-life means the time in which the quantity being followed falls by half. Take `CC(C)C[C@H](NC(=O)[C@H](Cc1c[nH]c2ccccc12)NC(=O)[C@H](CCCNC(=N)N)NC(=O)[C@@H](NC(=O)[C@H](Cc1ccccc1)NC(=O)[C@H](CC(=O)O)NC(=O)[C@H](CCC(N)=O)NC(=O)[C@H](C)NC(=O)[C@H](CCCNC(=N)N)NC(=O)[C@H](CCCCNC(=O)COCCOCCNC(=O)COCCOCCNC(=O)CC[C@H](NC(=O)CCCCCCCCCCCCCCCCC(=O)O)C(=O)O)NC(=O)[C@@H](NC(=O)[C@H](CC(=O)O)NC(=O)[C@H](CC(C)C)NC(=O)[C@](C)(Cc1ccccc1)NC(=O)[C@H](CCCCN)NC(=O)[C@H](CO)NC(=O)[C@@H](NC(=O)[C@H](CC(=O)O)NC(=O)[C@H](CO)NC(=O)[C@@H](NC(=O)[C@H](Cc1ccccc1)NC(=O)[C@@H](NC(=O)CNC(=O)[C@H](CCC(N)=O)NC(=O)C(C)(C)NC(=O)[C@@H](N)Cc1c[nH]cn1)[C@@H](C)O)[C@@H](C)O)C(C)C)[C@@H](C)O)C(C)C)C(=O)N[C@@H](CC(C)C)C(=O)N[C@@H](CCC(=O)O)C(=O)NC(C)(C)C(=O)NCC(=O)O` [Peptide 140] (H-H[Aib]QGTFTSDVSK[αMeF]LDTK([AEEA-AEEA-γGlu-C18 diacid])RAQDFVRWLLE[Aib]G-OH; N-terminus assumed): the “24 hr % Vehicle Food Intake” value in data set [1] amounted to 65.4%. For the same compound, the entries for the “WT % glucose change 60 min” value in the data set on wildtype (WT) mice (10 nmol/kg) and with wildtype (WT) mice (30 nmol/kg) were −32.1% and −29.0%, respectively. In addition, the EC50 in data set [2] stood at 0.0227 nM; in data set [3] it was 0.0464 nM. Besides, the “% Relative Potency Ratio” value in data set [2] is 4.0. The results for the “GLP-1R KO % glucose change - 60 min” value in data set [4] (10 nmol/kg) and in [4] (30 nmol/kg) were 46.2% and 59.8%, respectively. Also, in the data set “in vivo” (male, C57BL/6, mouse), the bioavailability came out at 102%. The compound further gave a half-life in “in vivo” (male, C57BL/6, mouse) of 6.4 h.
The term fraction remaining denotes the share of the starting amount still present when the sample was taken. As for `CC[C@H](C)[C@H](NC(=O)C(C)(C)NC(=O)[C@H](CCC(N)=O)NC(=O)[C@@H](NC(=O)[C@](C)(Cc1ccccc1)NC(=O)[C@H](CC(=O)O)NC(=O)[C@H](CCCCNC(=O)COCCOCCNC(=O)COCCOCCNC(=O)CC[C@H](NC(=O)CC[C@H](NC(=O)CCCCCCCCCCCCCCCCCCC(=O)O)C(=O)O)C(=O)O)NC(=O)[C@H](C)NC(=O)[C@H](C)NC(=O)[C@H](CCCNC(=N)N)NC(=O)[C@H](CO)NC(=O)[C@H](CC(=O)O)NC(=O)[C@H](CC(C)C)NC(=O)[C@](C)(Cc1ccccc1)NC(=O)[C@H](CCCCN)NC(=O)[C@H](CO)NC(=O)[C@@H](NC(=O)[C@H](CC(=O)O)NC(=O)[C@H](CO)NC(=O)[C@@H](NC(=O)[C@](C)(Cc1ccccc1)NC(=O)[C@H](CO)NC(=O)CNC(=O)[C@H](Cc1c[nH]cn1)NC(=O)C(C)(C)NC(=O)[C@@H](N)Cc1c[nH]cn1)[C@@H](C)O)C(C)C)C(C)C)C(=O)N[C@@H](C)C(=O)N[C@@H](CC(N)=O)C(=O)N[C@H](C(N)=O)[C@@H](C)O` [Peptide 229, H-Aib-H-G-S-αMePhe-T-S-D-V—S-K-αMePhe-L-D-S-R-A-A-K (E-(O2Oc)-(O2Oc)-γE-γE-C20diacid) 20-D-αMePhe-V-Q-Aib-I-A-N-T-amide] (H-H[Aib]HGS[αMeF]TSDVSK[αMeF]LDSRAAK([AEEA-AEEA-γGlu-γGlu-C20 diacid])D[αMeF]VQ[Aib]IANT-NH2; N-terminus assumed), at recombinant Neprilysin (isolated enzyme neprilysin), the share remaining at 0.5 h is 100%, the amount remaining at 2 h came out at 100%, the fraction remaining at 4 h was determined as 100% and the fraction remaining at 24 h amounted to 100%. In addition, the “% intact peptide over time” value at recombinant Neprilysin is given as 100%. In data set [5], this compound returned a share remaining at 5 min, 3.3 mg/mL of 60%; an amount remaining at 10 min, 3.3 mg/mL of 46%; a share remaining at 0.25 h, 3.3 mg/mL of 33%; a share remaining at 0.5 h, 3.3 mg/mL of 26%. In [6], this compound came in with an amount remaining at 5 min, 125 µM of 100%; an amount remaining at 10 min, 125 µM of 97%; a share remaining at 0.25 h, 125 µM of 91%; an amount remaining at 0.5 h, 125 µM of 79%. Further, in “in vivo” (mouse), the bioavailability came out at 86% and the half-life was 19 h.
For the compound `CC(C)C[C@H](NC(=O)[C@H](CC(C)C)NC(=O)[C@H](Cc1c[nH]c2ccccc12)NC(=O)[C@H](CCCNC(=N)N)NC(=O)[C@@H](NC(=O)[C@H](Cc1ccccc1)NC(=O)[C@H](CC(=O)O)NC(=O)[C@H](CCC(N)=O)NC(=O)[C@H](C)NC(=O)[C@H](CCCNC(=N)N)NC(=O)[C@H](CCCCNC(=O)COCCOCCNC(=O)COCCOCCNC(=O)CC[C@H](NC(=O)CCCCCCCCCCCCCCCCCCC(=O)O)C(=O)O)NC(=O)[C@@H](NC(=O)[C@H](CC(=O)O)NC(=O)[C@H](CC(C)C)NC(=O)[C@](C)(Cc1ccccc1)NC(=O)[C@H](CCCCN)NC(=O)[C@H](CO)NC(=O)[C@@H](NC(=O)[C@H](CC(=O)O)NC(=O)[C@H](CO)NC(=O)[C@@H](NC(=O)[C@H](Cc1ccccc1)NC(=O)[C@@H](NC(=O)CNC(=O)[C@H](CCC(N)=O)NC(=O)C(C)(C)NC(=O)[C@@H](N)Cc1c[nH]cn1)[C@@H](C)O)[C@@H](C)O)C(C)C)[C@@H](C)O)C(C)C)C(=O)N[C@@H](C)C(=O)NC(C)(C)C(=O)NCC(N)=O` [Peptide 477] (H-H[Aib]QGTFTSDVSK[αMeF]LDTK([AEEA-AEEA-γGlu-C20 diacid])RAQDFVRWLLA[Aib]G-NH2; N-terminus assumed), in [2], the EC50 was 0.0541 nM and the “% Relative Potency Ratio” value stood at 4.3. Moreover, the EC50 in [3] is 0.117 nM. In addition, in “in vivo” (male, C57BL/6, mouse), the bioavailability was found to be 50% and the half-life was 8.9 h.
